Source: ChEMBL document CHEMBL1134979, “A glucose-selective fluorescence sensor based on boronic acid-diol recognition” (Bioorg Med Chem Lett, 2002)

How the values were obtained:
[1] = Selectivity for Glucose to Fructose was determined by Fluorescence experiment; Fluorescence intensity change upon binding with fructose was too small for an accurate Ka determination.
[2] = Binding constant for complexation with Galactose by Fluorescence experiment
[3] = Fluorescence intensity change with respect to glucose binding (100 mM) was determined by Fluorescence experiment; Decreased by 0.5 fold
[4] = Binding constant for complexation with Fructose by Fluorescence experiment; Fluorescence was too small for an accurate Ka determination.
[5] = Binding constant for complexation with glucose by Fluorescence experiment
[6] = Fluorescence intensity change with respect to glucose binding (100 mM) was determined by Fluorescence experiment; Increased by 7.0 fold
[7] = Selectivity for Glucose to Fructose was determined by Fluorescence experiment
[8] = Binding constant for complexation with Fructose by Fluorescence experiment
[9] = Fluorescence intensity change with respect to glucose binding (100 mM) was determined by Fluorescence experiment; Increased by 0.9 fold
[10] = Fluorescence intensity change with respect to glucose binding (100 mM) was determined by Fluorescence experiment; Increased by 4.3 fold
[11] = Fluorescence intensity change with respect to glucose binding (100 mM) was determined by Fluorescence experiment; Decreased by 0.4 fold
[12] = Fluorescence intensity change with respect to glucose binding (100 mM) was determined by Fluorescence experiment; PBA is not fluorescent.
[13] = Fluorescence intensity change with respect to glucose binding (100 mM) was determined by Fluorescence experiment; Increased by 5.5 fold

Row | SMILES | Ka [2] | Ka [5] | Selectivity [7] | Ka [8] | further results
1 | CC1=C2C[C@H]3Cc4c(CO)oc(-c5ccc(B(O)O)cc5)c4C3=C2Oc2cc(B(O)O)ccc21 | 100 M⁻¹ | 4000 M⁻¹ | – | – | Selectivity [1]: Fluorescence intensity change upon binding with fructose was too small for an accurate Ka determination; Activity [3]: Decreased by 0.5 fold; Ka [4]: Fluorescence was too small for an accurate Ka determination
2 | CN(Cc1ccccc1B(O)O)Cc1c2ccccc2c(CN(C)C(=O)Cc2ccccc2CC(=O)N(C)Cc2c3ccccc3c(CN(C)Cc3ccccc3B(O)O)c3ccccc23)c2ccccc12 | 30 M⁻¹ | 1470 M⁻¹ | 43 | 34 M⁻¹ | Activity [6]: Increased by 7.0 fold
3 | CN(Cc1ccccc1B(O)O)Cc1c2ccccc2c(CN(C)Cc2ccccc2B(O)O)c2ccccc12 | 158 M⁻¹ | 3980 M⁻¹ | 13 | 316 M⁻¹ | –
4 | OB(O)c1ccc[n+](Cc2c3ccccc3c(C[n+]3cccc(B(O)O)c3)c3ccccc23)c1 | – | 2510 M⁻¹ | – | – | Activity [9]: Increased by 0.9 fold
5 | CN(Cc1ccccc1B(O)O)Cc1c2ccccc2c(CN(C)C(=O)CCCCC(=O)N(C)Cc2c3ccccc3c(CN(C)Cc3ccccc3B(O)O)c3ccccc23)c2ccccc12 | 105 M⁻¹ | 638 M⁻¹ | 8 | 77 M⁻¹ | Activity [10]: Increased by 4.3 fold
6 | O=C1c2cccc3cc([N+](=O)[O-])cc(c23)C(=O)N1c1cccc(B(O)O)c1 | – | 38 M⁻¹ | 0.08 | 476 M⁻¹ | Activity [11]: Decreased by 0.4 fold
7 | OB(O)c1ccccc1 | 15 M⁻¹ | 5 M⁻¹ | 0.03 | 162 M⁻¹ | Activity [12]: PBA is not fluorescent
8 | CN(Cc1ccccc1B(O)O)Cc1c2ccccc2c(CN(C)C(=O)c2ccccc2C(=O)N(C)Cc2c3ccccc3c(CN(C)Cc3ccccc3B(O)O)c3ccccc23)c2ccccc12 | 33 M⁻¹ | 178 M⁻¹ | 0.6 | 283 M⁻¹ | Activity [13]: Increased by 5.5 fold
